Experimental data reported in ChEMBL document CHEMBL1772985, “N-(3-fluoro-4-(4-(2-methoxy or 2,3-dichlorophenyl)piperazine-1-yl)butyl)arylcarboxamides as selective dopamine D3 receptor ligands: critical role of the carboxamide linker for D3 receptor selectivity” (J Med Chem, 2011).

Experiments:
D(4) dopamine receptor = target: T1, D(4) dopamine receptor (Homo sapiens, UniProt P21917); experiment: Displacement of [125I]-IABN from human dopamine D4 receptor expressed in HEK293 cells after 60 mins by gamma counting; assay type: cell-based
T1 sequence (P21917 whole entry): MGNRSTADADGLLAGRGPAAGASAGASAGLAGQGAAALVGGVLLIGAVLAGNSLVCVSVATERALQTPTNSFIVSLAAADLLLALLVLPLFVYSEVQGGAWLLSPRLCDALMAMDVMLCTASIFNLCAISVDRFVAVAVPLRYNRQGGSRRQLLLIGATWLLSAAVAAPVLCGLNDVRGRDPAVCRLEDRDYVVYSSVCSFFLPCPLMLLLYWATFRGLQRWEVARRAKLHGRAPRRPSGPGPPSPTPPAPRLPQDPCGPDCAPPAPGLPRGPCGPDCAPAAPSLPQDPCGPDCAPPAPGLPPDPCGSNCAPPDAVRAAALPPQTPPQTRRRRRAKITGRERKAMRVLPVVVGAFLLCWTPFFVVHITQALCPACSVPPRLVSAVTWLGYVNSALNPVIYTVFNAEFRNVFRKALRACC

D(3) dopamine receptor [1] = target: T2, D(3) dopamine receptor (Homo sapiens, UniProt P35462); experiment: Displacement of [125I]-IABN from human dopamine D3 receptor expressed in HEK293 cells after 60 mins by gamma counting; assay type: cell-based
D(3) dopamine receptor [2] = target: T2, D(3) dopamine receptor; experiment: Antagonist activity at human dopamine D3 receptor expressed in CHO-K1 cells assessed as inhibition of dopamine-induced recruitment of beta-arrestin-2 after 90 mins by beta-galactosidase assay; assay type: functional, cell-based
[3] = target: T3, 5-hydroxytryptamine receptor 1A (Homo sapiens) (UniProt P08908); experiment: Agonist activity at 5HT1A receptor assessed as stimulation of [35S]GTPgammaS binding relative to control; assay type: functional; set-up: concentration or dose not given beside the values
T3 sequence (whole entry): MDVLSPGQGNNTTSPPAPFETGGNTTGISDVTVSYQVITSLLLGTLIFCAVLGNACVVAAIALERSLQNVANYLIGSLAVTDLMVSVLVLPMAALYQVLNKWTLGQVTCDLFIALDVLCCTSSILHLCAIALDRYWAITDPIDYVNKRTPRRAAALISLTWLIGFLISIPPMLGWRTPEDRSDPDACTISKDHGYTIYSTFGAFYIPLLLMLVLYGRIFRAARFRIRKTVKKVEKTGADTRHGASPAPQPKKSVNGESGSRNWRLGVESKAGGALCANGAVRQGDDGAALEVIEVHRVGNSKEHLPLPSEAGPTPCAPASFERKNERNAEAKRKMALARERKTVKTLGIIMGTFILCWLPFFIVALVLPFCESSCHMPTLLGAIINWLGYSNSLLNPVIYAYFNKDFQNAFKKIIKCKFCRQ

D(2) dopamine receptor = D(2) dopamine receptor (Homo sapiens, UniProt P14416); experiment: Displacement of [125I]-IABN from human dopamine D2L receptor expressed in HEK293 cells after 60 mins by gamma counting; assay type: cell-based
[4] = target: T4, 5-hydroxytryptamine receptor 1A (Homo sapiens, UniProt P08908); experiment: Agonist activity at 5HT1A receptor assessed as stimulation of [35S]GTPgammaS binding; assay type: functional
T4 sequence (P08908 whole entry): T3 sequence (whole entry)

Homo sapiens = species: Homo sapiens; experiment: Selectivity ratio Ki for human dopamine D2L receptor to Ki for human dopamine D3 receptor
[5] = target: 5-hydroxytryptamine receptor 2A (Homo sapiens, UniProt P28223)
[6] = target: T4, 5-hydroxytryptamine receptor 1A; experiment: Displacement of [3H]8-OH-DPAT from 5HT1A receptor
D(3) dopamine receptor [7] = target: T2, D(3) dopamine receptor; experiment: Antagonist activity at human dopamine D3 receptor expressed in CHOp cells assessed as inhibition of quinpirole-induced mitogenesis; assay type: functional, cell-based
D(3) dopamine receptor [8] = target: T2, D(3) dopamine receptor; experiment: Antagonist activity at human dopamine D3 receptor expressed in CHO-K1 cells assessed as inhibition of dopamine-induced recruitment of beta-arrestin-2 at 10 uM after 90 mins by beta-galactosidase assay; assay type: functional, cell-based
[9] = Binding affinity to human dopamine D2/E2 loop of D3 receptor expressed in HEK293 cells; assay type: cell-based
[10] = Binding affinity to human dopamine D2/D3 receptor chimera B expressed in HEK293 cells; assay type: cell-based
[11] = Binding affinity to human dopamine D2/D3 receptor chimera C expressed in HEK293 cells; assay type: cell-based
[12] = target: T3, 5-hydroxytryptamine receptor 1A (Homo sapiens); experiment: Displacement of [3H]8-OH-DPAT from 5HT1A receptor at 10 uM

Chain of D(2) dopamine receptor (P14416 whole entry): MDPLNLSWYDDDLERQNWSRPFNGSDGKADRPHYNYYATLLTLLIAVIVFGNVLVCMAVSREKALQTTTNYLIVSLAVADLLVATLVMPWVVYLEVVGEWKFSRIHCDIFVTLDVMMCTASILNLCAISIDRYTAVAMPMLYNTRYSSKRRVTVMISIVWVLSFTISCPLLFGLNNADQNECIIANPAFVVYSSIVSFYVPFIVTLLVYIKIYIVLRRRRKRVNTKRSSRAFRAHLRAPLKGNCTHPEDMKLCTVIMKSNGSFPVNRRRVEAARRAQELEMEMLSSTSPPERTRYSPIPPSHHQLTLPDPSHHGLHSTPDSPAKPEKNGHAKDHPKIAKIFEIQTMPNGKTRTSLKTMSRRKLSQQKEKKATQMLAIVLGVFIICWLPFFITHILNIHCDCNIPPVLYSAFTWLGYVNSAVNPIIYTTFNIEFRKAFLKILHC
Chain of 5-hydroxytryptamine receptor 2A (P28223 whole entry): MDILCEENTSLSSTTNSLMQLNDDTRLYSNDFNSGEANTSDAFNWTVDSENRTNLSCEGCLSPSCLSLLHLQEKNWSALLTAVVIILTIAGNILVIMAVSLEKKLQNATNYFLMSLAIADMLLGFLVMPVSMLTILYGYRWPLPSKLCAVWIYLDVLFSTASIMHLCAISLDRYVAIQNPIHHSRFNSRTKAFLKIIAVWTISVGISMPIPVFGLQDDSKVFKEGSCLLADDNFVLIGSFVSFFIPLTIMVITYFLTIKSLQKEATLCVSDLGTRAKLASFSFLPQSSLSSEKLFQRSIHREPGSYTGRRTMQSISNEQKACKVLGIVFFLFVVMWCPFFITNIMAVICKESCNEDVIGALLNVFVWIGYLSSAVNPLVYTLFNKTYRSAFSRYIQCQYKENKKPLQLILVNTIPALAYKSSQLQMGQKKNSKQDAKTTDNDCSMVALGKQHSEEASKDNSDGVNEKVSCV
T2 sequence (P35462 whole entry): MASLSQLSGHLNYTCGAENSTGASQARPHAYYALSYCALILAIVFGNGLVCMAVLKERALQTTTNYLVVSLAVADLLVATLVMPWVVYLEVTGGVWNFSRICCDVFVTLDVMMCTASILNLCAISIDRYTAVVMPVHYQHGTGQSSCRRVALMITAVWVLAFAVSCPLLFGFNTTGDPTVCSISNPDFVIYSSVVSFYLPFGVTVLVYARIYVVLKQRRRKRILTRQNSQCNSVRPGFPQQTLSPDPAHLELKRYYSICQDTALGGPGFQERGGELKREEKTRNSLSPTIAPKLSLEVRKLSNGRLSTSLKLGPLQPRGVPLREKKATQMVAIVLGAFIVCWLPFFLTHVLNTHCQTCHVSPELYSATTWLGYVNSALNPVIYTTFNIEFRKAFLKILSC

| Compound | Ki (D(4) dopamine receptor) [nM] | Ki (D(3) dopamine receptor [1]) [nM] | IC50 (D(3) dopamine receptor [2]) [nM] | Activity [3] [%] | Ki (D(2) dopamine receptor) [nM] | EC50 [4] [nM] | Ratio Ki (Homo sapiens) | Ki [5] [nM] | Ki [6] [nM] | IC50 (D(3) dopamine receptor [7]) [nM] | inhibition (D(3) dopamine receptor [8]) [%] | Kd [9] [nM] | Kd [10] [nM] | Kd [11] [nM] | inhibition [12] [%] |
| --- | --- | --- | --- | --- | --- | --- | --- | --- | --- | --- | --- | --- | --- | --- | --- |
| O=C(NCCC(F)CN1CCN(c2cccc(Cl)c2Cl)CC1)c1cc2ccccc2[nH]1 (configuration not stated) | 3360 | 4 | 1220 | 88 | 526 | 2140 | 131 | 212 | 223 | – | – | – | – | – | – |
| COc1ccc2oc(C(=O)NCCC(F)CN3CCN(c4ccccc4OC)CC3)cc2c1 (configuration not stated) | – | 13.9 | 1240 | 76 | 274 | 600 | 20 | 3000 | 73 | 780 | – | – | – | – | – |
| COc1ccccc1N1CCN(CC(F)CCNC(=O)c2ccc3c(c2)Cc2ccccc2-3)CC1 (configuration not stated) | 3180 | 10.1 | – | – | 2890 | – | 286 | > 10000 | 299 | 214 | < 50 | – | – | – | – |
| O=C(NCCC(F)CN1CCN(c2cccc(Cl)c2Cl)CC1)c1ccc(-c2ccccn2)cc1 (configuration not stated) | 3090 | 6.2 | – | – | 378 | 1080 | – | 98 | 159 | 256 | – | – | – | – | – |
| O=C(NCCC(F)CN1CCN(c2cccc(Cl)c2Cl)CC1)c1cc2ccccc2s1 (configuration not stated) | – | 2.9 | 3770 | – | 472 | – | 163 | 3290 | 2140 | 17 | – | – | – | – | – |
| COc1ccccc1N1CCN(CC(F)CCNC(=O)c2ccc(-c3ccccn3)cc2)CC1 (configuration not stated) | – | 20.5 | 699 | 73 | 390 | 71.6 | 19 | 2060 | 49 | 390 | – | – | – | – | – |
| OC(CCNCc1ccc2c(c1)Cc1ccccc1-2)CN1CCN(c2cccc(Cl)c2Cl)CC1 (configuration not stated) | – | 134 | – | – | 2090 | – | 16 | – | – | – | – | – | – | – | – |
| CCCN(CCCCN1CCN(c2ccccc2OC)CC1)Cc1ccc2c(c1)Cc1ccccc1-2 | – | 71.5 | – | – | 196 | – | 3 | – | – | – | – | – | – | – | – |
| CCCN(CCCCN1CCN(c2cccc(Cl)c2Cl)CC1)Cc1ccc2c(c1)Cc1ccccc1-2 | – | 129 | – | – | 269 | – | 2 | – | – | – | – | – | – | – | – |
| COc1ccc2[nH]c(C(=O)NCCC(F)CN3CCN(c4ccccc4OC)CC3)cc2c1 (configuration not stated) | – | 4.6 | 2990 | – | 302 | – | 66 | 3540 | 1170 | 1140 | – | – | – | – | – |
| CCCN(CCCCN1CCN(c2cccc(Cl)c2Cl)CC1)Cc1cc2ccccc2s1 | – | – | – | – | 162 | – | 2 | – | – | – | – | – | – | – | – |
| CCCN(CCCCN1CCN(c2cccc(Cl)c2Cl)CC1)Cc1ccc2ccccc2c1 | – | 104 | – | – | 313 | – | 3 | – | – | – | – | – | – | – | – |
| COc1ccccc1N1CCN(CC(F)CCNC(=O)c2cc3ccccc3o2)CC1 (configuration not stated) | – | 28.6 | – | 60 | 329 | 134 | 11 | 4800 | 37.9 | 440 | – | – | – | – | – |
| CCCN(CCCCN1CCN(c2ccccc2OC)CC1)Cc1ccc2ccccc2c1 | – | 80.8 | – | – | 119 | – | 1.5 | – | – | – | – | – | – | – | – |
| FC(CCNCc1ccc2c(c1)Cc1ccccc1-2)CN1CCN(c2cccc(Cl)c2Cl)CC1 (configuration not stated) | – | 467 | – | – | 5270 | – | 11 | – | – | – | – | – | – | – | – |
| O=C(NCCC(F)CN1CCN(c2cccc(Cl)c2Cl)CC1)c1cc2ccccc2o1 (configuration not stated) | – | – | – | – | – | – | – | – | – | – | – | 0.08 | 0.02 | 0.02 | – |
| O=C(NC/C=C/CN1CCN(c2cccc(Cl)c2Cl)CC1)c1ccc(-c2ccccn2)cc1 | – | – | – | – | – | – | 133 | – | – | – | – | – | – | – | – |
| COc1ccc2[nH]c(C(=O)NCCC(F)CN3CCN(c4cccc(Cl)c4Cl)CC3)cc2c1 (configuration not stated) | – | 1.5 | – | – | 230 | – | 153 | 272 | – | 320 | < 50 | – | – | – | < 50 |
| COc1ccccc1N1CCN(CC(F)CCNC(=O)c2cc3ccccc3s2)CC1 (configuration not stated) | – | 3.8 | 3210 | 57 | 241 | 440 | 63 | 3030 | 139 | 83 | – | – | – | – | – |
| O=C(NCCC(F)CN1CCN(c2cccc(Cl)c2Cl)CC1)c1ccc2c(c1)Cc1ccccc1-2 (configuration not stated) | – | 2.6 | – | – | 4260 | – | 1640 | 4800 | 6000 | 800 | < 50 | – | – | – | – |
| COc1ccc2oc(C(=O)NCCC(F)CN3CCN(c4cccc(Cl)c4Cl)CC3)cc2c1 (configuration not stated) | – | 8 | – | – | 279 | – | 35 | 274 | 501 | 1430 | < 50 | – | – | – | – |
| CN(CCC(O)CN1CCN(c2cccc(Cl)c2Cl)CC1)Cc1ccc2c(c1)Cc1ccccc1-2 (configuration not stated) | – | 162 | – | – | 869 | – | 5 | – | – | – | – | – | – | – | – |
| O=C(NCCC(F)CN1CCN(c2cccc(Cl)c2Cl)CC1)c1ccc2ccccc2c1 (configuration not stated) | – | 6.1 | – | – | 195 | – | 32 | 1910 | – | 255 | < 50 | – | – | – | < 50 |
| COc1ccccc1N1CCN(CC(F)CCNC(=O)c2cc3ccccc3[nH]2)CC1 (configuration not stated) | 1490 | 9.5 | – | 83 | 421 | 1430 | 44 | 3240 | 101 | 820 | < 50 | – | – | – | – |
| CCCN(CCCCN1CCN(c2ccccc2OC)CC1)Cc1cc2ccccc2s1 | – | 67.9 | – | – | 69.9 | – | 1 | – | – | – | – | – | – | – | – |
| CN(CCC(F)CN1CCN(c2cccc(Cl)c2Cl)CC1)Cc1ccc2c(c1)Cc1ccccc1-2 (configuration not stated) | – | 393 | – | – | 2060 | – | 5 | 2580 | – | 918 | – | – | – | – | < 50 |
